# US12319655B2, “RAF kinase inhibitors and methods of use thereof” (Deciphera Pharmaceuticals, LLC, priority 2021, dated 2025)
# What was measured:
# [1] = molecular target: A-Raf kinase (SEQ. ID No: 1) (Homo sapiens (Human), UniProt P10398, Y301D/Y302D); assay: Biochemical Assay for A-Raf (1); conditions: Table J, assay version (1); read-out: ARAF (1) IC50
# Method in brief: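 A-Raf Y301D/Y302D at 5.55 nM phosphorylates 30.1 nM MEK with 1 mM ATP in pH 7.5 Tris buffer, 1% DMSO. Activity was read continuously as NADH oxidation at 340 nm in a pyruvate kinase/lactate dehydrogenase coupled system for 6 h at 30 °C. Rates from 4–5 h were converted to percent inhibition, and IC50 came from a four-parameter fit.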
# Miapaca-2 cells = assay: MiaPaca-2 Cell Proliferation Assay (1); assay type: cell-based; conditions: Homo sapiens, MIA PaCa-2, single agent, read-out: MiaPaca2 (1) IC50
# Method in brief: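 Resazurin was added after compound exposure and incubated 5-6 h, then fluorescence read at 540 nm excitation and 600 nm emission to give IC50.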
# [2] = molecular target: B-Raf kinase (SEQ. ID NO: 2) (Homo sapiens (Human), UniProt P15056); assay: Biochemical Assay for B-Raf (1); conditions: Table J, assay version (1); read-out: BRAF (1) IC50
# B-Raf kinase (SEQ. ID NO: 2), sequence (P15056 416-766): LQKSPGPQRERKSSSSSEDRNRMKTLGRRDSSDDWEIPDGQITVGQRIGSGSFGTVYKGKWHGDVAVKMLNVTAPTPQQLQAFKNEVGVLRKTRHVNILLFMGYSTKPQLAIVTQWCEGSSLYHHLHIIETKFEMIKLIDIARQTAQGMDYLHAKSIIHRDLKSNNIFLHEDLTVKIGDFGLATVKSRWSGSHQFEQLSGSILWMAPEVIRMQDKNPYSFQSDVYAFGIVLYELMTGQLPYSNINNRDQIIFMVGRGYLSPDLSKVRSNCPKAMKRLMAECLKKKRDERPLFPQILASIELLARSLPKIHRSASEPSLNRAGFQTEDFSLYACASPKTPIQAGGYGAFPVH
# Method in brief: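 Continuous PK/LDH-coupled NADH oxidation assay, A340 read for 6 h at 30° C., with 0.13 nM B-Raf, 30.1 nM MEK substrate and 1 mM ATP in Tris pH 7.5, MgCl2, DTT, detergents, 1% DMSO. Rate taken from 4–5 h window; percent inhibition vs no-compound and known-inhibitor controls; four-parameter fit gives IC50.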
# H2405 cells = assay: H2405 Cell Proliferation Assay (1); assay type: cell-based; conditions: Homo sapiens, NCI-H2405
# Method: H2405 Cell Proliferation Assay (1)
# H2405 cells (catalog #CRL-5994) are obtained from the American Type Culture Collect (ATTC, Manassas, VA). Briefly, cells were grown in RPMI 1640 supplemented with 5% characterized fetal bovine serum (Invitrogen, Carlsbad, CA) and 1% Penicillin/Streptomycin/L-Glutamine at 37° C., 5% CO2, and 95% humidity. Cells are expanded until reaching 70-95% confluency at which point they are sub-cultured or harvested for assay use. A serial dilution of test compound is dispensed into a 96-well black clear bottom plate in triplicate. Three thousand cells are added per well in 200 μL complete growth medium in the 96-well plate. Plates are incubated for 67-72 h at 37° C., 5% CO2, and 95% humidity. At the end of the incubation, 40 μL of a 440 μM solution of resazurin (Sigma, St. Louis, MO) in PBS is added to each well of the plate and plates are incubated for an additional 5-6 h at 37° C., 5% CO2, and 95% humidity. Plates are read on a Synergy2 or equivalent reader (Biotek, Winooski VT) using an excitation of 540 nm and an emission of 600 nm. Data is analyzed using Prism software (GraphPad, San Diego, CA) to calculate IC50 values.
# A-Raf kinase (SEQ. ID No: 1), sequence (P10398 other isoform, or with tags, fused parts or gaps Y301D (already in the parent)/Y302D (already in the parent)): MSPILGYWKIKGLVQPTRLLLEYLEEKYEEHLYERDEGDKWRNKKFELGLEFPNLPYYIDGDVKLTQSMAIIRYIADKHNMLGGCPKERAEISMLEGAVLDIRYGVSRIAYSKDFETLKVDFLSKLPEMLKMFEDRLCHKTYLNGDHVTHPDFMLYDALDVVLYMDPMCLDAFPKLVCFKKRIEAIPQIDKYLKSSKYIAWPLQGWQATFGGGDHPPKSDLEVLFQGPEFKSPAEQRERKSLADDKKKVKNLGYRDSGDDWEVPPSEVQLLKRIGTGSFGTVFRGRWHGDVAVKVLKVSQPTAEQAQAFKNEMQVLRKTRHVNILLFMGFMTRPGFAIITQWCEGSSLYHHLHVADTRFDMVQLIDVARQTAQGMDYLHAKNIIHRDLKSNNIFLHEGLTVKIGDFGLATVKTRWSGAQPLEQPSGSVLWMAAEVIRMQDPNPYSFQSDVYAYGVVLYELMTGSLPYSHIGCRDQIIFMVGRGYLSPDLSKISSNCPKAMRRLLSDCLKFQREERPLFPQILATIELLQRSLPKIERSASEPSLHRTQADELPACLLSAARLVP
Compound,IC50 [1] [nM],IC50 (Miapaca-2 cells) [nM],IC50 [2] [nM],IC50 (H2405 cells) [nM]
Cc1ccc(NC(=O)c2ccnc(C(F)(F)F)c2)cc1-c1cc(-c2ccnc(NC(=O)C3CC3)c2)n(C)c(=O)c1 [Example 13],1000 to 10000,1000 to 10000,≤ 100,
CC(=O)Nc1cc(-c2cc(-c3cc(NC(=O)c4ccnc(C(F)(F)F)c4)ccc3C)cc(C3CC3)n2)ccn1 [Example 14],1000 to 10000,1000 to 10000,≤ 100,
Cc1ccc(NC(=O)c2ccnc(C(F)(F)F)c2)cc1-c1ccnc(-c2ccnc(NC(=O)CN(C)C)c2)c1 [Example 17],1000 to 10000,1000 to 10000,≤ 100,
Cc1ccc(NC(=O)c2ccnc(C(F)(F)F)c2)cc1-c1ccnc(-c2ccnc3c2CC(=O)N3)c1 [Example 18],1000 to 10000,1000 to 10000,≤ 100,
Cc1cc(-c2cc(NC(=O)c3ccnc(C(F)(F)F)c3)ccc2C)cc(-c2ccnc3c2CC(=O)N3)n1 [Example 20],1000 to 10000,1000 to 10000,≤ 100,
Cc1ccc(NC(=O)c2cc(CN(C)C)cc(C(F)(F)F)c2)cc1-c1cncc(-c2ccnc(NC(=O)C3CC3)c2)n1 [Example 185],100 to 500,,≤ 100,≤ 100
COC(C)(C)c1cc(C(=O)Nc2ccc(C)c(-c3ccnc(-c4ccnc(NC(=O)C5CC5)c4)n3)c2)ccn1 [Example 190],500 to 1000,1000 to 10000,≤ 100,
CNC(=O)c1cc(-c2cccc(-c3cc(NC(=O)c4ccnc(C(C)(C)C#N)c4)ccc3C)c2)cnn1 [Example 191],1000 to 10000,,100 to 500,≤ 100
CNC(=O)c1cc(-c2nccc(-c3cc(NC(=O)c4ccnc(C(C)(C)C#N)c4)cnc3C)n2)ccn1 [Example 194],1000 to 10000,1000 to 10000,500 to 1000,
CNC(=O)c1cc(-c2nc(-c3cc(NC(=O)c4ccnc(C(C)(C)C#N)c4)ccc3C)cc(C3CC3)n2)ccn1 [Example 196],1000 to 10000,,100 to 500,100 to 500
Cc1ccc(NC(=O)c2ccnc(C(C)(C)C#N)c2)cc1-c1cccc(-c2cc(NC(=O)C3(C)CC3)ncn2)c1 [Example 197],1000 to 10000,1000 to 10000,500 to 1000,
CNC(=O)c1cc(-c2ccnc(-c3cc(NC(=O)c4ccnc(C(C)(C)C#N)c4)cnc3C)n2)ccn1 [Example 199],1000 to 10000,,500 to 1000,100 to 500
Cc1ccc(NC(=O)c2ccnc(C(C)(C)C#N)c2)cc1-c1cccc(-c2cc(NC(=O)C3(F)CC3)ncn2)c1 [Example 200],1000 to 10000,1000 to 10000,100 to 500,
CNC(=O)c1cc(-c2cccc(-c3cc(NC(=O)c4ccnc(C(C)(C)C#N)c4)cnc3C)c2)cnn1 [Example 201],1000 to 10000,,500 to 1000,100 to 500
Cc1ccc(NC(=O)c2ccnc(C3(C#N)CC3)c2)cc1-c1cccc(-c2cc(NC(=O)C3CC3)ncn2)c1 [Example 203],1000 to 10000,1000 to 10000,≤ 100,
CNC(=O)c1cc(-c2cc(-c3cc(NC(=O)c4ccnc(C(C)(C)C#N)c4)ccc3F)ccn2)ccn1 [Example 205],1000 to 10000,,100 to 500,
Cc1ncc(NC(=O)c2ccnc(C(C)(C)C#N)c2)cc1-c1cccc(-c2cc(N)ncn2)c1 [Example 207],1000 to 10000,,100 to 500,1000 to 10000
Cc1ncc(NC(=O)c2ccnc(C(C)(C)C#N)c2)cc1-c1cccc(-c2cc(NC(=O)C(C)(C)C)ncn2)c1 [Example 213],1000 to 10000,1000 to 10000,1000 to 10000,
CNC(=O)c1cc(-c2cc(-c3cc(NC(=O)c4cnnc(C5CC5)c4)ccc3C)ccn2)ccn1 [Example 215],1000 to 10000,1000 to 10000,≤ 100,

Compound,IC50 [1] [nM],IC50 (Miapaca-2 cells) [nM],IC50 [2] [nM],IC50 (H2405 cells) [nM]
Cc1ccc(NC(=O)c2ccnc(C(C)(C)C#N)c2)cc1-c1cc(-c2cc(NC(=O)C3CC3)ncn2)cc(C2CC2)c1 [Example 216],1000 to 10000,1000 to 10000,100 to 500,
Cc1ncc(NC(=O)c2ccnc(C(C)(C)C#N)c2)cc1-c1ccnc(-c2ccnc(NC(=O)C(C)(C)C#N)c2)c1 [Example 219],1000 to 10000,1000 to 10000,100 to 500,
Cc1ccc(NC(=O)c2ccnc(C3(C#N)CC3)c2)cc1-c1cccc(-c2cc(NC(=O)C3CC3)ncn2)n1 [Example 220],1000 to 10000,1000 to 10000,100 to 500,
Cc1ccc(NC(=O)c2ccnc(C(C)(C)C#N)c2)cc1-c1cccc(-c2ccnc(NC(=O)C3CC3)c2)c1 [Example 223],500 to 1000,,≤ 100,≤ 100
Cc1ncc(NC(=O)c2ccnc(C(C)(C)C#N)c2)cc1-c1cccc(-c2cc(NC(=O)C3CC3)ncn2)n1 [Example 226],1000 to 10000,1000 to 10000,1000 to 10000,
Cc1ccc(NC(=O)c2ccnc(C(C)(C)C#N)c2)cc1-c1cccc(-c2cc(NC(=O)C3CC3)ncn2)n1 [Example 233],1000 to 10000,1000 to 10000,100 to 500,
COC(C)(C)C(=O)Nc1cc(-c2cc(-c3cc(NC(=O)c4ccnc(C(C)(C)C#N)c4)ccc3C)ccn2)ccn1 [Example 237],1000 to 10000,,100 to 500,500 to 1000
CC(C)(C#N)c1cc(C(=O)Nc2ccc(C#N)c(-c3cccc(-c4cc(NC(=O)C5CC5)ncn4)c3)c2)ccn1 [Example 240],1000 to 10000,,100 to 500,100 to 500
CNC(=O)c1cc(-c2ccnc(-c3cc(NC(=O)c4ccnc(C(C)(C)C#N)c4)c(F)cc3C)n2)ccn1 [Example 242],1000 to 10000,,100 to 500,100 to 500
CNC(=O)c1cc(-c2ccnc(-c3cc(NC(=O)c4ccnc(C(C)(C)F)c4)ccc3C)n2)ccn1 [Example 246],1000 to 10000,,100 to 500,100 to 500
CNC(=O)c1cc(-c2cc(-c3cc(NC(=O)c4ccnc(C(C)(C)C#N)c4)ccc3C#N)ccn2)ccn1 [Example 247],1000 to 10000,,1000 to 10000,100 to 500
Cc1cc(F)c(NC(=O)c2cnnc(C3CC3)c2)cc1-c1nccc(-c2ccnc(NC(=O)C3CC3)c2)n1 [Example 252],1000 to 10000,1000 to 10000,≤ 100,
Cc1ccc(NC(=O)c2ccnc(C3CC3)c2)cc1-c1cccc(-c2cc(NC(=O)C3CC3)ncn2)c1 [Example 255],1000 to 10000,,≤ 100,100 to 500
Cc1ccc(NC(=O)c2ccnc(C(C)(C)C#N)c2)cc1-c1ccnc(-c2ccnc(NC(=O)C3CC3)c2)n1 [Example 257],500 to 1000,1000 to 10000,≤ 100,
CNC(=O)c1cc(-c2cc(-c3cc(NC(=O)c4ccnc(C(C)(C)C#N)c4)ccc3F)cc(C)n2)ccn1 [Example 259],1000 to 10000,,100 to 500,100 to 500
Cc1cc(F)c(NC(=O)c2ccnc(C3(C#N)CC3)c2)cc1-c1ccnc(-c2ccnc(NC(=O)C3CC3)c2)n1 [Example 262],500 to 1000,1000 to 10000,≤ 100,
Cc1cc(F)c(NC(=O)c2cnnc(C3CC3)c2)cc1-c1ccnc(-c2ccnc(NC(=O)C3CC3)c2)n1 [Example 263],1000 to 10000,1000 to 10000,≤ 100,
CCNC(=O)c1cc(-c2cc(-c3cc(NC(=O)c4ccnc(C(C)(C)C#N)c4)ccc3C)ccn2)ccn1 [Example 266],1000 to 10000,,100 to 500,100 to 500
